Consider 13 compounds from US4303785A, “Antitumor anthracycline antibiotics” (priority 1978, dated 1981).

For this assay, the system named is L1210 cells. The experiment in a line: animal or person. Type of assay: in vivo, CDF1 mice. As to conditions: for response vs control in vivo at 0.15 mg/kg / response vs control in vivo at 0.31 mg/kg / response vs control in vivo at 0.625 mg/kg / response vs control in vivo at 1.25 mg/kg / response vs control in vivo at 2.5 mg/kg / response vs control in vivo at 5 mg/kg: Mus musculus, L1210, ip, 1080 h. On the procedure: D. Representative compounds of general formula I" were tested against experimental animal tumors as follows: […]
CDF1 mice were administered intraperitoneally (i.p.) with 1×10^5 cells/mouse of L1210 cells. After 24 hours had elapsed since inoculation, the mice were administered the test compounds intraperitoneally once daily for 10 consecutive days and observed for a 45 day period.
The antitumor activity was shown by the prolongation rate of survival day (T/C, %) to the survival day of control mice injected with physiological saline.

Setting [1] is: 5 mg/kg/day i.p., once daily for 10 days.
[2] abbreviates: read-out: Antitumor Activity (T/C, prolongation rate of survival day), 0.15 mg/kg/day i.p., once daily for 10 days.
The mark [3] stands for this setting: read-out: Antitumor Activity (T/C, prolongation rate of survival day), 0.31 mg/kg/day i.p., once daily for 10 days.
The mark [4] stands for this setting: read-out: Antitumor Activity (T/C, prolongation rate of survival day), 0.625 mg/kg/day i.p., once daily for 10 days.
Setting [5] is: read-out: Antitumor Activity (T/C, prolongation rate of survival day), 1.25 mg/kg/day i.p., once daily for 10 days.
Setting [6] is: read-out: Antitumor Activity (T/C, prolongation rate of survival day), 2.5 mg/kg/day i.p., once daily for 10 days.
Setting [7] is: read-out: Antitumor Activity (T/C, prolongation rate of survival day), 5 mg/kg/day i.p., once daily for 10 days.
The mark [8] stands for this setting: 2.5 mg/kg/day i.p., once daily for 10 days.
Where [9] appears, read: 0.15 mg/kg/day i.p., once daily for 10 days.
The mark [10] stands for this setting: 0.31 mg/kg/day i.p., once daily for 10 days.
Where [11] appears, read: 0.625 mg/kg/day i.p., once daily for 10 days.
The mark [12] stands for this setting: 1.25 mg/kg/day i.p., once daily for 10 days.

Like-named read-outs stand apart in the source and are kept apart here.

For the compound `COc1cccc2c1C(=O)c1c(O)c3c(c(O)c1C2=O)C[C@@](O)(C(C)=O)C[C@@H]3O[C@H]1C[C@H](N)[C@H](OC2CCCC(OC)O2)[C@H](C)O1` (single isomer, unassigned) [Example 14-a, 4'-O-(6-methoxytetrahydropyranyl) daunomycin a], under setting [1], the “Antitumor Activity (T/C, prolongation rate of survival day)” value (from here on “Antitumor Activity”) is reported as 232%. In addition, the response vs control in vivo at 0.15 mg/kg under setting [2] was 100%. Under setting [3], the response vs control in vivo at 0.31 mg/kg came to 100%. The response vs control in vivo at 0.625 mg/kg under setting [4] came out at 100%. Also, the response vs control in vivo at 1.25 mg/kg under setting [5] was 106%. For the same compound, under setting [6], the response vs control in vivo at 2.5 mg/kg amounted to 125%.
As to `COc1cccc2c1C(=O)c1c(O)c3c(c(O)c1C2=O)C[C@@](O)(C(=O)CO)C[C@@H]3O[C@H]1C[C@H](N)[C@H](OC(C)OCCCCCC(C)C)[C@H](C)O1` (single isomer, unassigned) [Example 10-a, 4'-O-(1-(6-methylheptyloxy)ethyl) adriamycin a], the response vs control in vivo at 0.15 mg/kg under setting [2] is 105%. Moreover, the response vs control in vivo at 0.31 mg/kg under setting [3] was 92%. For the same compound, the response vs control in vivo at 0.625 mg/kg under setting [4] came to 99%. In addition, the response vs control in vivo at 1.25 mg/kg under setting [5] stood at 118%. Also, the response vs control in vivo at 2.5 mg/kg under setting [6] came to 125%. In addition, the response vs control in vivo at 5 mg/kg under setting [7] came to 125%.
With `CCCCOC(C)O[C@@H]1[C@H](C)O[C@@H](O[C@H]2C[C@](O)(C(C)=O)Cc3c(O)c4c(c(O)c32)C(=O)c2c(OC)cccc2C4=O)C[C@@H]1N` (single isomer, unassigned) [Example 18-a, 4'-O-(1-butyloxyethyl) daunomycin a], the “Antitumor Activity” value is, setting by setting: under setting [8], 116%; under setting [1], 144%. Further, the response vs control in vivo at 0.15 mg/kg under setting [2] stood at 110%. For the same compound, the response vs control in vivo at 0.31 mg/kg under setting [3] came to 103%. In addition, the response vs control in vivo at 0.625 mg/kg under setting [4] was 110%. In addition, the response vs control in vivo at 1.25 mg/kg under setting [5] is 116%.
With `CCCCOC(C)O[C@@H]1[C@H](C)O[C@@H](O[C@H]2C[C@](O)(C(=O)CO)Cc3c(O)c4c(c(O)c32)C(=O)c2c(OC)cccc2C4=O)C[C@@H]1N` (single isomer, unassigned) [Example 8-a, 4'-O-(1-butyloxyethyl) adriamycin a], the “Antitumor Activity” value under setting [1] is reported as 163%. The response vs control in vivo at 0.15 mg/kg under setting [2] was found to be 100%. In addition, the response vs control in vivo at 0.31 mg/kg under setting [3] came out at 100%. For the same compound, the response vs control in vivo at 0.625 mg/kg under setting [4] was found to be 119%. For the same compound, under setting [5], the response vs control in vivo at 1.25 mg/kg was found to be 125%. Moreover, the response vs control in vivo at 2.5 mg/kg under setting [6] worked out at 138%.
Turning to `COC(=O)C1CCCC(O[C@@H]2[C@H](C)O[C@@H](O[C@H]3C[C@](O)(C(C)=O)Cc4c(O)c5c(c(O)c43)C(=O)c3c(OC)cccc3C5=O)C[C@@H]2N)O1` (stereo partly drawn) [Example 15, 4'-O-(6-carbomethoxytetrahydropyranyl) daunomycin], the response vs control in vivo at 0.15 mg/kg under setting [2] turned out to be 100%. Moreover, the response vs control in vivo at 0.31 mg/kg under setting [3] turned out to be 100%. In addition, the response vs control in vivo at 0.625 mg/kg under setting [4] is 100%. Further, the response vs control in vivo at 1.25 mg/kg under setting [5] turned out to be 100%. Moreover, the response vs control in vivo at 2.5 mg/kg under setting [6] came out at 106%. Also, the response vs control in vivo at 5 mg/kg under setting [7] worked out at 131%.
Regarding `CCCCOC(C)O[C@@H]1[C@H](C)O[C@@H](O[C@H]2C[C@](O)(C(C)=O)Cc3c(O)c4c(c(O)c32)C(=O)c2c(OC)cccc2C4=O)C[C@@H]1N` (single isomer, unassigned) [Example 18-b, 4'-O-(1-butyloxyethyl) daunomycin b], the “Antitumor Activity” value by setting is: under setting [9], 103%; under setting [10], 96%; under setting [11], 110%; under setting [12], 110%; under setting [8], 151%; under setting [1], 188%.
As for `COc1cccc2c1C(=O)c1c(O)c3c(c(O)c1C2=O)C[C@@](O)(C(=O)CO)C[C@@H]3O[C@H]1C[C@H](N)[C@H](OC2CCCO2)[C@H](C)O1` (single isomer, unassigned) [Example 5-b, 4'-O-tetrahydrofuranyl adriamycin b], the “Antitumor Activity” value runs as follows: under setting [9], 122%; under setting [10], 128%; under setting [11], 141%; under setting [12], 154%; under setting [8], 230%; under setting [1], 256%.
For the compound `COc1cccc2c1C(=O)c1c(O)c3c(c(O)c1C2=O)C[C@@](O)(C(C)=O)C[C@@H]3O[C@H]1C[C@H](N)[C@H](OC(C)OCC(C)C)[C@H](C)O1` (single isomer, unassigned) [Example 17-b, 4'-O-(1-isobutyloxyethyl) daunomycin b], the “Antitumor Activity” value by setting is: under setting [9], 100%; under setting [10], 100%; under setting [11], 100%; under setting [12], 106%; under setting [8], 113%; under setting [1], 188%.
For the compound `CCCCOC(C)O[C@@H]1[C@H](C)O[C@@H](O[C@H]2C[C@](O)(C(=O)CO)Cc3c(O)c4c(c(O)c32)C(=O)c2c(OC)cccc2C4=O)C[C@@H]1N` (single isomer, unassigned) [Example 8-b, 4'-O-(1-butyloxyethyl) adriamycin b], the “Antitumor Activity” value stood at 100% under setting [9]; 100% under setting [10]; 106% under setting [11]; 119% under setting [12]; 138% under setting [8]; 288% under setting [1].
For the compound `CCOC(C)O[C@@H]1[C@H](C)O[C@@H](O[C@H]2C[C@](O)(C(=O)CO)Cc3c(O)c4c(c(O)c32)C(=O)c2c(OC)cccc2C4=O)C[C@@H]1N` (single isomer, unassigned) [Example 7-a, 4'-O-(1-ethyloxyethyl) adriamycin a], the “Antitumor Activity” value is, setting by setting: under setting [8], 277%; under setting [1], 108%. The response vs control in vivo at 0.15 mg/kg under setting [2] is 96%. In addition, the response vs control in vivo at 0.31 mg/kg under setting [3] is 101%. In addition, the response vs control in vivo at 0.625 mg/kg under setting [4] was found to be 127%. Moreover, the response vs control in vivo at 1.25 mg/kg under setting [5] is 145%.
On to `CCOC(C)O[C@@H]1[C@H](C)O[C@@H](O[C@H]2C[C@](O)(C(C)=O)Cc3c(O)c4c(c(O)c32)C(=O)c2c(OC)cccc2C4=O)C[C@@H]1N` (single isomer, unassigned) [Example 16-a, 4'-O-(1-ethyloxyethyl) daunomycin a], for which the “Antitumor Activity” value came out at 157% under setting [8] and 217% under setting [1]. The response vs control in vivo at 0.15 mg/kg under setting [2] is 96%. In addition, under setting [3], the response vs control in vivo at 0.31 mg/kg was found to be 96%. The response vs control in vivo at 0.625 mg/kg under setting [4] is 104%. For the same compound, the response vs control in vivo at 1.25 mg/kg under setting [5] stood at 102%.
As for `CCOC(C)O[C@@H]1[C@H](C)O[C@@H](O[C@H]2C[C@](O)(C(=O)CO)Cc3c(O)c4c(c(O)c32)C(=O)c2c(OC)cccc2C4=O)C[C@@H]1N` (single isomer, unassigned) [Example 7-b, 4'-O-(1-ethyloxyethyl) adriamycin b], the “Antitumor Activity” value is, setting by setting: under setting [9], 108%; under setting [10], 108%; under setting [11], 127%; under setting [12], 157%; under setting [8], 151%; under setting [1], 211%.
For the compound `COc1cccc2c1C(=O)c1c(O)c3c(c(O)c1C2=O)C[C@@](O)(C(C)=O)C[C@@H]3O[C@H]1C[C@H](N)[C@H](OC2CCCO2)[C@H](C)O1` (stereo partly drawn) [Example 12, 4'-O-(tetrahydrofuranyl) daunomycin], the response vs control in vivo at 0.15 mg/kg (0.15 mg/kg/day i.p., once daily for 10 days, read-out: Antitumor Activity (T/C, prolongation rate of survival day)) stood at 99%. In addition, the response vs control in vivo at 0.31 mg/kg (0.31 mg/kg/day i.p., once daily for 10 days, read-out: Antitumor Activity (T/C, prolongation rate of survival day)) came out at 105%. Also, the response vs control in vivo at 0.625 mg/kg (0.625 mg/kg/day i.p., once daily for 10 days, read-out: Antitumor Activity (T/C, prolongation rate of survival day)) worked out at 111%. Besides, the response vs control in vivo at 1.25 mg/kg (1.25 mg/kg/day i.p., once daily for 10 days, read-out: Antitumor Activity (T/C, prolongation rate of survival day)) came to 111%. For the same compound, where the note is “2.5 mg/kg/day i.p., once daily for 10 days, read-out: Antitumor Activity (T/C, prolongation rate of survival day)”, the response vs control in vivo at 2.5 mg/kg worked out at 160%. For the same compound, the response vs control in vivo at 5 mg/kg (5 mg/kg/day i.p., once daily for 10 days, read-out: Antitumor Activity (T/C, prolongation rate of survival day)) is 346%.
